One test relates to ISF Aβ levels. Further details: species or system mice. As to conditions: mouse, in vivo.
The subject of a further test is Aβ secretion. The following applies: in vitro exposure; cited from earlier work.
Test [1] concerns cultured fibroblasts of MPS patients. As to conditions: cited from earlier work.
The test system of a further test is NAGLU-deficient mice. The following applies: cited from earlier work.

Procedure for ISF Aβ levels: To investigate the effect of NAGLU on Aβ generation and clearance, in vivo microdialysis is used to dynamically assess ISF Aβ metabolism in the hippocampus of 5XFAD/NAGLU (+14 5XFAD/NAGLU (−/−) mice and 5XFAD littermates injected with AVV2/9 or PBS at 3-4 months of age. To assess ISF Aβ levels over time in the hippocampus of awake, freely moving mice in vivo microdialysis is performed as previously described. Briefly, under isoflurane anesthesia, a guide cannula is stereotaxically implanted above the hippocampus (3.1 mm behind bregma, 2.5 mm lateral to midline, and 1.2 mm below dura at a 12° angle). A microdialysis probe is inserted through the guide cannula into the brain. Artificial CSF is used as microdialysis perfusion buffer. Microdialysis samples are collected every 60-90 min and are assessed for Aβ40 or Aβ42 by ELISAs. The mean concentration of Aβ over 6 hr is defined as basal concentration of ISF Aβ. For each animal, all Aβ concentrations are normalized to the basal Aβ concentration for that mouse. After basal concentration is determined mice are administered a blood-brain permeable γ-secretase inhibitor (LY411575, 3 mg/kg subcutaneously) to rapidly block the production of Aβ. […] The half-life of ISF Aβ is calculated on the basis of the slope of the semi-log plot of % change in Aβ versus time. […]

For `CCN(CC)CCCC(C)Nc1ccnc2cc(Cl)ccc12` (centres unmarked) [Chloroquine], the “change of ISF levels of Aβ” value in the test with ISF Aβ levels is listed as “did not change”.
`Cl.N` [ammonium chloride]: the Aβ secretion entry with Aβ secretion is “reduces Aβ secretion”.
For the molecule `CO/C1=C\C(C)=C\[C@@H](C)[C@@H](O)[C@@H](C)C/C(C)=C/C=C/[C@H](OC)[C@@H]([C@@H](C)[C@@H](O)[C@H](C)[C@@]2(O)C[C@@H](O)[C@H](C)[C@@H](C(C)C)O2)OC1=O` [bafilomycin A1], the Aβ secretion result with Aβ secretion is “reduces Aβ secretion”.
On to `O=c1c(-c2ccc(O)cc2)coc2cc(O)cc(O)c12` [Genistein, 4′,5,7-trihydroxyisoflavone or 5,7-dihydroxy-3-(4-hydroxyphenyl)-4H-1-benzopyran-4-one], for which the “synthesis of glycosaminoglycans (GAGs)” value in test [1] is given as “inhibits synthesis of glycosaminoglycans (GAGs)”. In addition, in the test with NAGLU-deficient mice, the lysosomal storage material result is “reduces lysosomal storage material”.

Source of the values: patent US12460262B2, “Methods of detecting, preventing, reversing, and treating neurological diseases” (Washington University, priority 2018, dated 2025).
